Read-outs that look alike come from different tables or passages of the source.
What was measured:
IL-6 = IL-6 AlphaLISA in LPS-primed THP1 macrophages
NLRP3 inflammasome = NLRP3 inflammasome (Homo sapiens, UniProt Q96P20); test: NLRP3 inflammasome activation in THP1 macrophages, IL-1β AlphaLISA
[1] = Homo sapiens, THP-1, read-out: IL-6 Activity (μM)
[2] = Homo sapiens, THP-1, read-out: IL-6 Activity (μM), THP1 macrophages, PMA, LPS priming, nigericin 6.7 uM
[3] = IL-1β Activity (nM), THP1 macrophages, PMA, LPS priming, nigericin 6.7 uM activation

NLRP3 inflammasome, sequence (Q96P20 whole entry): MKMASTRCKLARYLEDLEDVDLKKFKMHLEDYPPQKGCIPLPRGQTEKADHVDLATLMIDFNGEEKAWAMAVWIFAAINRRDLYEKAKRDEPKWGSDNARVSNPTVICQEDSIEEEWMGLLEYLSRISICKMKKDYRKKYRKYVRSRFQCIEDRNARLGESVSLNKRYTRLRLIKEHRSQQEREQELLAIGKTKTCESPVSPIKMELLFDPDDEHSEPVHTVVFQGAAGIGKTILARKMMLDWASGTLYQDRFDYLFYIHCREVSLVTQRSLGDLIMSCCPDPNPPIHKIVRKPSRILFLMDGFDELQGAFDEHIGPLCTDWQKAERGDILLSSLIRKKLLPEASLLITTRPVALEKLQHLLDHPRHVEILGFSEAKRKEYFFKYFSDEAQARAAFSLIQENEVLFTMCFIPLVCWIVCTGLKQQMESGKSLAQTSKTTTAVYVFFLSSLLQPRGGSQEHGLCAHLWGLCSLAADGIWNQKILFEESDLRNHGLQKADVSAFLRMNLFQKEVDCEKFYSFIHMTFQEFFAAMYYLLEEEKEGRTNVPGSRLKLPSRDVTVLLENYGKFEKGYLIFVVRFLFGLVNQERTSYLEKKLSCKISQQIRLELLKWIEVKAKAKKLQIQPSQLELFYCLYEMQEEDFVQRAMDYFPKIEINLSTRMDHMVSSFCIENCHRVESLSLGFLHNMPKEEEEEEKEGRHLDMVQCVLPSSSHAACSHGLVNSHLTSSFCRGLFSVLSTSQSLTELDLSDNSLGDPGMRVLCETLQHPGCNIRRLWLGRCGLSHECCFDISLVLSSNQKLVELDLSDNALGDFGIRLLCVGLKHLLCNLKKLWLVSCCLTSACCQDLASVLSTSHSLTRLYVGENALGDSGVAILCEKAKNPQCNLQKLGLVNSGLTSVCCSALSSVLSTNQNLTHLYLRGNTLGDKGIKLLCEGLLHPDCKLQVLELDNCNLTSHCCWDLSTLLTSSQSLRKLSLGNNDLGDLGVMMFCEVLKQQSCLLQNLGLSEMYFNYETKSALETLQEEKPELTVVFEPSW

IC50 (IL-6; [1])	IC50 (NLRP3 inflammasome)	IC50 (IL-6; [2])	IC50 (NLRP3 inflammasome; [3])	IC50 (IL-6; read-out: IL-6 Activity, THP1 macrophages, PMA, LPS priming, nigericin 6.7 uM)	Structure (SMILES)
		> 10 µM	10 to 100 nM		Cc1cc(N[C@H]2CN(C)CC[C@@H]2F)nnc1-c1ccccc1O [compound 43]
		> 10 µM	1 to 10 nM		Cc1cccc(-c2ccc(N[C@@H]3CCCN(C)C3)nn2)c1O [compound 5]
			10 to 100 nM		Cc1cc(N[C@@H]2C[C@@H](F)CN(C)C2)nnc1-c1ccccc1O [compound 41]
		5 to 10 µM	1 to 10 nM		Cc1cc(-c2ccc(F)c(C)c2O)nnc1N[C@@H]1CCCN(C)C1 [compound 80]
		5 to 10 µM	1 to 10 nM		Cc1cc(N[C@@H]2CCCN(C)C2)nnc1-c1c(C)cccc1O [compound 69]
		> 10 µM	1 to 10 nM		Cc1cc(N[C@@H]2CCCN(CCF)C2)nnc1-c1ccc(F)cc1O [compound 44]
			< 1 nM	> 10 µM	Cc1cc(N[C@@H]2CCCN(C)C2)nnc1-c1ccc(F)c(C)c1O [compound 63]
		> 10 µM	10 to 100 nM		Cc1cc(N(C)[C@@H]2CCCN(C)C2)nnc1-c1ccccc1O [compound 23]
		> 10 µM	10 to 100 nM		Cc1ccc(O)c(-c2nnc(N[C@@H]3CCCN(C)C3)cc2C)c1 [compound 68]
			1 to 10 nM		Cc1cc(-c2ccc(Cl)cc2O)nnc1N[C@@H]1CCCN(C)C1 [compound 83]
		5 to 10 µM	< 1 nM		CCN1CCC[C@@H](Nc2cc(C)c(-c3ccc(F)cc3O)nn2)C1 [compound 58]
		> 10 µM	< 1 nM		CCc1cc(C)c(-c2ccc(N[C@@H]3CCCN(C)C3)nn2)c(O)c1 [compound 12]
		> 10 µM	10 to 100 nM		Cc1cc(N[C@@H]2CCCN(C)C2)nnc1-c1ccc(C(=O)O)cc1O [compound 92]
		< 1 µM	100 to 500 nM		Cc1cc(-c2cc(C)c(N[C@@H]3CCCN(C)C3)nn2)c(O)cc1F [compound 79]
		5 to 10 µM	< 1 nM		Cc1cc(N[C@@H]2CCCN(C(C)C)C2)nnc1-c1ccccc1O [compound 57]
		5 to 10 µM	10 to 100 nM		Cc1c(F)ccc(-c2ccc(N[C@@H]3CCCN(C)C3)nn2)c1O [compound 10]
		> 10 µM	10 to 100 nM		Cc1cc(-c2ccc(F)cc2O)nnc1N[C@@H]1CCCN(C)C1 [compound 77]

IC50 (IL-6; [1])	IC50 (NLRP3 inflammasome)	IC50 (IL-6; [2])	IC50 (NLRP3 inflammasome; [3])	IC50 (IL-6; read-out: IL-6 Activity, THP1 macrophages, PMA, LPS priming, nigericin 6.7 uM)	Structure (SMILES)
		5 to 10 µM	< 1 nM		Cc1cc(F)cc(O)c1-c1ccc(N[C@@H]2CCCN(C)C2)nn1 [compound 6]
		> 10 µM	10 to 100 nM		Cc1cc(N[C@@H]2C[C@H](F)CN(C)C2)nnc1-c1ccccc1O [compound 42]
		> 10 µM	1 to 10 nM		Cc1cc(-c2c(C)cccc2O)nnc1N[C@@H]1CCCN(C)C1 [compound 78]
> 10 µM	100 to 500 nM				Cc1cc(N[C@@H]2CCCN(C)C2)nnc1-c1ncccc1O [compound 108]
		> 10 µM	10 to 100 nM		Cc1cc(N[C@@H]2CCCN(CCF)C2)nnc1-c1ccccc1O [compound 39]
		> 10 µM	100 to 500 nM		Cc1cc(-c2ccc(N[C@@H]3CCCN(C)C3)nn2)c(O)cc1F [compound 9]
		> 10 µM	1 to 10 nM		Cc1cc(-c2c(C)cc(F)cc2O)nnc1N[C@@H]1CCCN(C)C1 [compound 84]
		> 10 µM	1 to 10 nM		Cc1cc(N[C@@H]2CCCN(C)C2)nnc1-c1c(C)cc(F)cc1O [compound 62]
		> 10 µM	< 1 nM		CCN1CCC[C@@H](Nc2cc(C)c(-c3ccccc3O)nn2)C1 [compound 56]
		< 1 µM	10 to 100 nM		Cc1ccc(-c2cc(C)c(N[C@@H]3CCCN(C)C3)nn2)c(O)c1 [compound 82]
		> 10 µM	> 1000 nM		Cc1cc(-c2ccc(C(=O)O)cc2O)nnc1N[C@@H]1CCCN(C)C1 [compound 93]
		> 10 µM	1 to 10 nM		Cc1cc(-c2cccc(C)c2O)nnc1N[C@@H]1CCCN(C)C1 [compound 81]
		> 10 µM	1 to 10 nM		Cc1cc(-c2nnc(N[C@@H]3CCCN(C)C3)cc2C)c(O)cc1F [compound 65]
5 to 10 µM	100 to 500 nM				Cc1cc(N[C@@H]2CCCN(C)C2)nnc1-c1ncc(F)cc1O [compound 109]
> 10 µM	1 to 10 nM				Cc1cc(C2CC2)cc(O)c1-c1ccc(N[C@@H]2CCCN(C)C2)nn1 [compound 13]
			1 to 10 nM		CCc1ccc(-c2cc(C)c(N[C@@H]3CCCN(C)C3)nn2)c(O)c1 [compound 16]

More lines, now with the values behind:

Structure (SMILES)	IC50 (IL-6; [1])	IC50 (NLRP3 inflammasome)	IC50 (IL-6; [2])	IC50 (NLRP3 inflammasome; [3])	IC50 (IL-6; read-out: IL-6 Activity, THP1 macrophages, PMA, LPS priming, nigericin 6.7 uM)
Cc1cc(C[C@@H]2CCCN(C)C2)nnc1-c1ccc(F)cc1O [compound 36, (S)-5-fluoro-2-(4-methyl-6-((1-methylpiperidin-3-yl)methyl)pyridazin-3-yl) phenol]	> 10 µM	10 to 100 nM			
Cc1cc(CC2CCCN(C)C2)nnc1-c1ccc(C#N)cc1O (stereo not drawn) [compound 102]	> 10 µM	100 to 500 nM			
Cc1cc(F)cc(O)c1-c1ccc(O[C@@H]2CCCN(C)C2)nn1 [compound 72]	> 10 µM	10 to 100 nM			
Cc1cc(N[C@@H]2CC[C@@H](C(=O)O)NC2)nnc1-c1ccccc1O [compound 94]			> 10 µM	> 1000 nM	
Cc1cc(C[C@@H]2CCCN(C)C2)nnc1-c1ccc(C(F)(F)F)cc1O [compound 37]	> 10 µM	500 to 1000 nM			
Cc1cc(NCC23CC(CO2)C3)nnc1-c1ccccc1O [compound 118]	> 10 µM	> 1000 nM			
Cc1cc(C[C@H]2CCCN(C)C2)nnc1-c1ccc(F)cc1O [compound 106, (R)-5-fluoro-2-(4-methyl-6-((1-methylpiperidin-3-yl)methyl)pyridazin-3-yl) phenol]	> 10 µM	> 1000 nM			
Cc1cc(O[C@@H]2CCCN(C)C2)nnc1-c1ccc(C#N)cc1O [compound 100]	> 10 µM	100 to 500 nM			
Cc1cccc(-c2ccc(N(C)[C@@H]3CCCN(C)C3)nn2)c1O [compound 18]			5 to 10 µM	> 1000 nM	
Cc1cc(-c2ccc(C(F)(F)F)cc2O)nnc1N[C@@H]1CCCN(C)C1 [compound 74]			> 10 µM		
Cc1cc(C[C@H]2CCCN(C)C2)nnc1-c1ccccc1O [compound 105]	> 10 µM	> 1000 nM			
CN1CC[C@@H](Nc2ccc(-c3ccccc3O)nn2)C1 [compound 31]			> 10 µM	> 1000 nM	
CN1CCC[C@@H](N(C)c2ccc(-c3ccccc3O)nn2)C1 [compound 17]			> 10 µM	> 1000 nM	
CN1CC[C@@H](Nc2ccc(-c3ccc(F)cc3O)nn2)C1 [compound 30]			> 10 µM	> 1000 nM	
Cc1cc(C[C@H]2CCCN(C)C2)nnc1-c1ccc(C(F)(F)F)cc1O [compound 104]	> 10 µM	1 to 10 nM			
Cc1cc(N(C)[C@@H]2CCCN(C)C2)nnc1-c1ccc(F)c(C)c1O [compound 64]			> 10 µM	1 to 10 nM	
Cc1cc(N(C)[C@@H]2CCCN(C)C2)nnc1-c1ccc(C#N)cc1O [compound 90]			> 10 µM	< 1 nM	
Cc1cc(N(C)[C@@H]2CCN(C)C2)nnc1-c1ccc(C(F)(F)F)cc1O [compound 97]	> 10 µM	10 to 100 nM			
Cc1cc(NC[C@H]2CCCO2)nnc1-c1ccccc1O [compound 116]	> 10 µM	> 1000 nM			
Cc1cc(NC[C@H]2COCCO2)nnc1-c1ccccc1O [compound 119]		> 1000 nM			

Structure (SMILES)	IC50 (IL-6; [1])	IC50 (NLRP3 inflammasome)	IC50 (IL-6; [2])	IC50 (NLRP3 inflammasome; [3])	IC50 (IL-6; read-out: IL-6 Activity, THP1 macrophages, PMA, LPS priming, nigericin 6.7 uM)
Cc1cc(N(C)[C@@H]2CCCN(C)C2)nnc1-c1ccc(F)cc1O [compound 26]			> 10 µM	1 to 10 nM	
Cc1cc(NC[C@H]2CCC(F)(F)C2)nnc1-c1ccccc1O [compound 113]	> 10 µM	> 1000 nM			
Cc1cc(NC[C@@H]2CCC(F)(F)C2)nnc1-c1ccccc1O [compound 114]	> 10 µM	> 1000 nM			
COC(C)(C)C(=O)Nc1cc(C)c(-c2ccccc2O)nn1 [compound 123]	> 10 µM	> 1000 nM			
CN1CC[C@@H](N(C)c2ccc(-c3ccccc3O)nn2)C1 [compound 33]	> 10 µM	> 1000 nM			
Cc1cc(C(F)(F)F)cc(O)c1-c1ccc(N[C@@H]2CCCN(C)C2)nn1 [compound 75]	> 10 µM				
Cc1cc(N[C@@H]2C[C@H](F)CN(C)C2)nnc1-c1ccc(F)cc1O [compound 47]			> 10 µM	10 to 100 nM	
Cc1cc(NC[C@@H]2CCCO2)nnc1-c1ccccc1O [compound 117]	> 10 µM	500 to 1000 nM			
Cc1cc(NC[C@@H]2CCCN2C)nnc1-c1ccccc1O [compound 121]	> 10 µM	> 1000 nM			
Cc1cc(-c2ccccc2O)nnc1O[C@@H]1CCCN(C)C1 [compound 99]	> 10 µM	> 1000 nM			
Cc1cc(C[C@@H]2CCCN(C)C2)nnc1-c1ccccc1O [compound 70]	> 10 µM	10 to 100 nM			
Cc1cc(N(C)[C@@H]2CCCN(C)C2)nnc1-c1ccc(C2CC2)cc1O [compound 28]	< 1 µM	< 1 nM			
CCc1ccc(-c2ccc(N(C)[C@@H]3CCCN(C)C3)nn2)c(O)c1 [compound 27]			> 10 µM	10 to 100 nM	
CCN1CCC[C@@H](Nc2ccc(-c3c(C)cc(F)cc3O)nn2)C1 [compound 60]			> 10 µM	< 1 nM	
COC(C)(C)CNc1cc(C)c(-c2ccccc2O)nn1 [compound 124]	> 10 µM	> 1000 nM			
Cc1cc(N[C@H]2CN(C)CC[C@H]2F)nnc1-c1ccc(F)cc1O [compound 49]			> 10 µM	10 to 100 nM	
Cc1cc(O[C@@H]2CCCN(C)C2)nnc1-c1ccccc1O [compound 71]	> 10 µM	10 to 100 nM			
Cc1cc(-c2ccc(F)cc2O)nnc1O[C@@H]1CCCN(C)C1 [compound 35]	5 to 10 µM	10 to 100 nM			
Cc1cc(-c2ccc(F)cc2O)nnc1N[C@@H]1CCCN(CCF)C1 [compound 86]			> 10 µM	500 to 1000 nM	

From US20250304560A1, “MODULATORS OF NLRP3 INFLAMMASOME AND RELATED PRODUCTS AND METHODS” (Neumora Therapeutics, Inc., priority 2022, published 2025)
